Key:
[1] = tested on: HEK293 (human embryonic kidney); assay: CCK-8 cytotoxicity assay, HEK293; type: cell-based; conditions: HEK293 cells, 48h
Source text: (§1) The cytotoxic effects of the newly synthesized diphenyl(tetrahydro-5H-indeno[2,1-c]quinolin-2-yl)phosphine oxides 8, diphenyl(7H-indeno[2,1-c]quinolin-2-yl)phosphine oxides 9, and diphenyl(7-oxo-7H-indeno[2,1-c]quinolin-2-yl)phosphine oxides 10 derivatives were studied against several human cell lines: A549 (carcinomic human alveolar basal epithelial cell), SKOV3 (human ovarian carcinoma), and HEK293 (human embryonic kidney). Furthermore, in order to analyze the selective cytotoxicity facing exclusively cancerous cell lines, toxicity against a non-cancerous cell line (MRC-5, lung fibroblast cells) was also evaluated (Table 3). The cell counting kit (CCK-8) assay was employed to assess the growth inhibition and cell proliferation inhibitory activities of the compounds, which are described in Table 3 as IC50 values.
(§2) Cells were cultured according to the supplier’s instructions. Cells were seeded in 96-well plates at a density of 1.5–3 × 10^3 cells per well and incubated overnight in 0.1 mL of media supplied with 10% Fetal Bovine Serum (Lonza) in a 5% CO2 incubator at 37 °C. On day 2, drugs were added and the samples were incubated for 48h. After treatment, 10 μL of the cell counting kit-8 was added into each well for an additional 2h incubation at 37 °C. The absorbance of each well was determined by an Automatic Elisa Reader System at 450 nm wavelength (deducting 620 nm). CPT was used as the positive control.

[2] = tested on: MRC-5, lung fibroblast cells; assay: CCK-8 cytotoxicity assay, MRC5; type: cell-based, human; conditions: for IC50: Homo sapiens, MRC5 non-cancerous cells, 48h, CCK-8
Source text: as §1, §2

[3] = tested on: A549 (carcinomic human alveolar basal epithelial cell); assay: CCK-8 cytotoxicity assay, A549; type: cell-based; conditions: Homo sapiens, A549, 48 h, A549 cells, 48h, CCK-8
Source text: as §1, §2

human TOP1 [4] = molecular target: T1, human TOP1 (Homo sapiens, UniProt P11387); assay: TOP1 supercoiled plasmid DNA relaxation assay; type: biochemical; conditions: for TOP1 Inhibition 1 min: 1 min reaction; for TOP1 Inhibition 1 min / TOP1 Inhibition 3 min / TOP1 Inhibition 5 min: compounds at 100 μM, semiquantitative; for TOP1 Inhibition 3 min: 3 min reaction; for TOP1 Inhibition 5 min: 5 min reaction; for Persistence of TOP1 inhibition over the time course / TOP1 relaxation activity after preincubation of compound with TOP1: 100 μM; for Persistence of TOP1 inhibition over the time course: in words; for TOP1 relaxation activity after preincubation of compound with TOP1: compound incubated with TOP1 for 15 min at 37 °C, then DNA added
T1 construct: made in house; host or cells: Saccharomyces cerevisiae TOP1 null strain RS190, plasmid pHT143 (GAL promoter)
T1 sequence (P11387 1-765): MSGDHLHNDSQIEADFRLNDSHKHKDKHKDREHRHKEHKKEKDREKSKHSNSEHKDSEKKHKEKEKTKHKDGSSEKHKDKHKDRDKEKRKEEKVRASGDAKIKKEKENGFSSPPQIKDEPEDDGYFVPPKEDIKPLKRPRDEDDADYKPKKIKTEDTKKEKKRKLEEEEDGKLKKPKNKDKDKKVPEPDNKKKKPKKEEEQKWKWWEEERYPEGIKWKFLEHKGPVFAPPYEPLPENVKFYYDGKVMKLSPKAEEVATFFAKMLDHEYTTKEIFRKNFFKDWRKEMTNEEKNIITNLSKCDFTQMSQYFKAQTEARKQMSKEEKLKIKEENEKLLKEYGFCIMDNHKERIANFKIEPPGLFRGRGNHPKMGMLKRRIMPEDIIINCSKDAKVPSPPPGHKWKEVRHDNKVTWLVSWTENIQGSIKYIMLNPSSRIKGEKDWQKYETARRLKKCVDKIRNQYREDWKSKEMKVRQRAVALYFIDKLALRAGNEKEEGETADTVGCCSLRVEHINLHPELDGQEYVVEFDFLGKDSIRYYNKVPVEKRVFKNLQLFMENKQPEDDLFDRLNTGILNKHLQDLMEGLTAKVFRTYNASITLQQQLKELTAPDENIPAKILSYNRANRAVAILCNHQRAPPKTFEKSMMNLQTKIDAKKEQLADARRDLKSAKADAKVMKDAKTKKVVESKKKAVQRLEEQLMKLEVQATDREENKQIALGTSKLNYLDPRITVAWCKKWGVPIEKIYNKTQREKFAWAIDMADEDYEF
Source text: The effect of the previously prepared compounds as TOP1 inhibitors was studied. A conventional supercoiled plasmid relaxation assay was used to determine if the newly fused tetrahydroindenoquinolines 8, more aromatic indenoquinolines 9, and carbonyl derivatives 10 with phosphine oxide substituents inhibit human TOP1 activity by converting supercoiled plasmid DNA to its relaxed form. In these experiments, compound samples were mixed with the enzyme followed by the addition of a supercoiled plasmid DNA substrate, and incubation continued for increasing time intervals (1 min, 3 min, and 5 min). The reaction was terminated by the addition of SDS. DNA relaxation products were then resolved by 1% agarose electrophoresis gel and visualized by gel red staining.
The yeast Saccaromyces cerevisiae TOP1 null strain RS190, which was used for the expression of recombinant human TOP1, was a kind gift from R. Sternglanz (State University of New York, Stony Brook, NY, USA). Plasmid pHT143, for the expression of recombinant TOP1 under the control of an inducible GAL promoter, was described. The plasmids pHT143 were transformed into the yeast S. cerevisiae strain RS190. The proteins were expressed and purified by affinity chromatography essentially as described. The protein concentrations were estimated from Coomassie blue-stained SDS/polyacrylamide gels by comparison to serial dilutions of bovine serum albumin (BSA).
TOP1 activity was assayed using a DNA relaxation assay by incubating 110 ng/mL of TOP1 with 0.5 µg of negatively supercoiled pUC18 in […] of reaction buffer (20 mM Tris HCl, 0.1 mM Na2EDTA, 10 mM MgCl2, […] acetylated BSA, and 150 mM KCl, pH 7.5). The effect of the synthesized phosphorylated derivatives 8, 9, and 10 on the TOP1 activity was measured by adding different concentrations of the compounds, at different time points, as indicated in the text. The reactions were performed at 37 °C stopped by the addition of 0.5% SDS after the indicated time intervals. The samples were protease-digested and electrophoresed in a horizontal 1% agarose gel in 1xTBE (50 mM Tris, 45 mM boric acid, 1 mM EDTA) at 25V during 18h. The gel was stained with gel red (BIOTIUM, 5 mg/mL), destained with water, and photographed under UV illumination. Since all drugs were dissolved in dimethyl sulfoxide (DMSO), a […] control sample containing the same DMSO concentration as the samples incubated with the drugs was included in all experiments.

human TOP1 [5] = molecular target: T1, human TOP1; assay: TOP1 supercoiled plasmid DNA relaxation assay; type: biochemical; conditions: for TOP1 Inhibition 30 min: 30 min reaction, compounds at 100 μM, semiquantitative; for TOP1 relaxation activity after preincubation of compound with DNA: 100 μM, compound incubated with DNA for 15 min at 37 °C before TOP1 was added
[6] = tested on: SKOV3 (human ovarian carcinoma); assay: CCK-8 cytotoxicity assay, SKOV3; type: cell-based; conditions: SK-OV-3, SKOV3 cells, 48h
Source text: as §1, §2

SMILES | IC50 [1] [µM] | IC50 [2] [µM] | IC50 [3] [µM] | TOP1 Inhibition 1 min (human TOP1 [4]) | TOP1 Inhibition 3 min (human TOP1 [4]) | TOP1 Inhibition 5 min (human TOP1 [4]) | TOP1 Inhibition 30 min (human TOP1 [5]) | IC50 [6] [µM] | Persistence of TOP1 inhibition over the time course (human TOP1 [4]) | TOP1 relaxation activity after preincubation of compound with TOP1 (human TOP1 [4]) | TOP1 relaxation activity after preincubation of compound with DNA (human TOP1 [5]) | Cytotoxicity against MRC5 (in words) ([2]; non-cancerous cell line)
O=P(c1ccccc1)(c1ccccc1)c1ccc2c(c1)C1c3ccccc3CC1C(c1cccc3ccccc13)N2 (centres unmarked) [Compound 8g, Diphenyl(6-(naphthalen-1-yl)-6,6a,7,11b-tetrahydro-5H-indeno[2,1-c]quinolin-2-yl)phosphine oxide] | > 50 | > 50 | > 50 | + (weak inhibition) | + (weak inhibition) | + (weak inhibition) | + (weak inhibition) | > 50 |  |  |  | 
O=C1c2ccccc2-c2c1c(-c1cccc3ccccc13)nc1ccc(P(=O)(c3ccccc3)c3ccccc3)cc21 [Compound 10g, (6-(Naphth-1-yl)-7-oxo-7H-indeno[2,1-c]quinolin-2-yl)diphenylphosphine oxide] | > 50 | > 50 | > 50 | + (weak inhibition) | + (weak inhibition) | + (weak inhibition) | + (weak inhibition) | > 50 |  |  |  | 
O=P(c1ccccc1)(c1ccccc1)c1ccc2c(c1)C1c3ccccc3CC1C(c1ccc(F)cc1)N2 (centres unmarked) [Compound 8c, Diphenyl(6-(4-fluorophenyl)-6,6a,7,11b-tetrahydro-5H-indeno[2,1-c]quinolin-2-yl)phosphine oxide] | > 50 | 10.7 ± 0.43 | 19.9 ± 3.35 | ++ | ++ | ++ | ++ | > 50 |  |  |  | 
O=P(c1ccccc1)(c1ccccc1)c1ccc2c(c1)C1c3ccccc3CC1C(c1ccccc1)N2 (centres unmarked) [Compound 8a, Diphenyl(6-phenyl-6,6a,7,11b-tetrahydro-5H-indeno[2,1-c]quinolin-2-yl)phosphine oxide] |  | > 50 | 40.2 ± 7.13 | ++ | ++ | ++ | ++ | 6.35 ± 1.73 | more persistent inhibition |  |  | 
O=P(c1ccccc1)(c1ccccc1)c1ccc2nc(-c3ccc(C(F)(F)F)cc3)c3c(c2c1)-c1ccccc1C3 [Compound 9b, Diphenyl(6-(4-(trifluoromethyl)phenyl)-7H-indeno[2,1-c]quinolin-2-yl)phosphine oxide] | > 50 | > 50 | > 50 | +++ (strong inhibition) | +++ (strong inhibition) | +++ (strong inhibition) | +++ (strong inhibition) | > 50 |  | the enzyme was inactive, not being able to relax the DNA | partially relaxing the DNA | 
CC[C@@]1(O)C(=O)OCc2c1cc1n(c2=O)Cc2cc3ccccc3nc2-1 [CPT, camptothecin, reference compound] |  | 0.11 ± 0.02 | 0.001 | ++ | − (no inhibition) | − (no inhibition) | − (no inhibition) | 0.0055 | short-term reversible effect |  |  | high toxicity
O=[N+]([O-])c1ccc(C2Nc3ccc(P(=O)(c4ccccc4)c4ccccc4)cc3C3c4ccccc4CC23)cc1 (centres unmarked) [Compound 8k, Diphenyl(6-(4-nitrophenyl)-6,6a,7,11b-tetrahydro-5H-indeno[2,1-c]quinolin-2-yl)phosphine oxide] | > 50 | > 50 | > 50 | + (weak inhibition) | + (weak inhibition) | + (weak inhibition) | + (weak inhibition) | > 50 | more persistent inhibition |  |  | 
O=P(c1ccccc1)(c1ccccc1)c1ccc2c(c1)C1c3ccccc3CC1C(c1ccc(C(F)(F)F)cc1)N2 (centres unmarked) [Compound 8b, Diphenyl(6-(4-(trifluoromethyl)phenyl)-6,6a,7,11b-tetrahydro-5H-indeno[2,1-c]quinolin-2-yl)phosphine oxide] | > 50 | > 50 | 25.8 ± 6.98 | +++ (strong inhibition) | +++ (strong inhibition) | +++ (strong inhibition) | +++ (strong inhibition) | > 50 | more persistent inhibition | the enzyme was inactive, not being able to relax the DNA | partially relaxing the DNA | 
